This passage reports Ki results from US8232308B2, “Methods for treating a disease in which Rho kinase is involved” (UBE Industries, Ltd., priority 2003, dated 2012).

Where a name gives a salt, the structure may show the parent alone.

In this experiment the target is T1, activated ROCK II (Rattus norvegicus, UniProt Q62868).
T1 construct: purchased Upstate Biotechnology 14-338
T1 sequence (Q62868 11-550 limits assumed): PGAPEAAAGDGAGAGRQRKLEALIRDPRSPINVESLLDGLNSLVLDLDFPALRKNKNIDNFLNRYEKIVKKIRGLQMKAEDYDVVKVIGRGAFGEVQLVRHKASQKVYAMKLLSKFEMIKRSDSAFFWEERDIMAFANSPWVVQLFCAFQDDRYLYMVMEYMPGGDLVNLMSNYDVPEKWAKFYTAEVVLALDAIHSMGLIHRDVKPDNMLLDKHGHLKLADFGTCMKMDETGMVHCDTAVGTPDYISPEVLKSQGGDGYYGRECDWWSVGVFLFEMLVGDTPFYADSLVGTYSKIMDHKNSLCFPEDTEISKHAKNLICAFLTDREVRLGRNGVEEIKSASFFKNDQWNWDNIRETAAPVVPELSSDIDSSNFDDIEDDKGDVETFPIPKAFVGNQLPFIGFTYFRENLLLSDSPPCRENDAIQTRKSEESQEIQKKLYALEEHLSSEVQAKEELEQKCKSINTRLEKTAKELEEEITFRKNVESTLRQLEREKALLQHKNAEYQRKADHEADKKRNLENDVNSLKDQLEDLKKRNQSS
As to the kind of experiment: Test for Evaluation of Inhibiting Activity to Rho Kinase. The class given is biochemical. The note with it: S6 Kinase Substrate Peptide, [γ-32P]ATP, 30° C. for 15 minutes, Ki=IC50/(1+S/Km). Here is the method: In order to find the utility of the present invention compound, a Rho kinase inhibiting activity of the present invention compound was evaluated. The details thereof will be illustrated under the item of “Pharmacological Test (Test for Evaluation of Rho Kinase Inhibiting Activity)” in the Examples which will be mentioned later. The evaluation of the Rho kinase inhibiting activity of the present invention compound was carried out in accordance with the methods mentioned in J. Biol. Chem., 274, 32418 (1999) by Kaibuchi, et al. and mentioned in the instruction manual for use attached to the commercially available activated ROCK II [Upstate Biotechnology, Catalog No. 14-338 (5 units/50 μl)].
A. Test for Evaluation of Inhibiting Activity to Rho Kinase
In order to test the usefulness of the compounds of the present invention as a Rho kinase inhibitor, inhibiting activities of the compounds of the present invention to Rho kinase were evaluated and investigated in accordance with the methods of Kaibuchi, et al. mentioned in J. Biol. Chem., 274, 32418, 1999 and also with the methods mentioned in the instruction manual for use attached to commercially available activated ROCK II [Upstate Biotechnology, Catalog No. 14-338, (5 unite/50 μl)]. With regard to the test compounds, the compounds 5-1 to 5-73 (except the compounds 5-2, 5-9, 5-18, 5-37 and 5-38) were used.
A buffer was prepared so as to make tris(hydroxymethyl)aminomethane (Tris) (pH 7.5), 50 mM, ethyleneglycol bis(β-aminoethyl ether)-N,N,N′,N′-tetraacetic acid (EGTA), 2 mM, ethylenediaminetetraacetic acid (EDTA), 1 mM, magnesium chloride (MgCl2) 5 mM, β-glycerol phosphate, 5 mM, and dithiothreitol (DTT), 2 mM, by mixing them.
A mixed liquid of a 10 mM ATP solution with a commercially available [γ-^32P]ATP solution [NEN, Code No. NEG-002A] was diluted with the buffer to prepare a 300 μM ATP [γ-^32P]ATP solution.
A Commercially Available Activated ROCK II [Upstate Biotechnology, Catalog No. 14-338, (5 Units/50 μl)] was diluted to a concentration of 1/100 with the buffer to prepare an activated ROCK II solution.
A S6 Kinase Substrate Peptide [Upstate Biotechnology, Catalog No. 12-124,] (2 mg) was dissolved in distilled water to prepare a 1 mM substrate solution.
A test compound was dissolved in 10% aqueous dimethyl sulfoxide solution.
1) The test compound solution is placed in a microtube.
2) The 300 μM ATP [γ-^32P]ATP solution is added to the microtube followed by cooling to 4° C.
3) After that, a permanently activated ROCK II solution, 1 mM substrate solution and buffer are added to each microtube in that order, and the whole is mixed and cooled again at 4° C.
4) The microtube is placed in an incubator (30° C.) and the mixture is subjected to reaction for 15 minutes.
5) After cooling to 4° C., a 250 mM phosphoric acid solution (5 μl) is added to each microtube to stop the reaction.
6) The reaction solution (30 μl) is taken out from each microtube and spotted on a filter paper (Whatman P81) so that the reaction product (phosphorylated substrate) is adsorbed to the filter paper.
7) The filter paper is transferred to a beaker in which a 75 mM phosphoric acid solution is placed and shaken for 5 minutes so that unreacted [γ-^32P]AfP is washed out. The washing operation as such is carried out four times.
8) After that, the filter paper is dipped in ethanol to dehydrate and energy amount (radioactivity) of the reaction product adsorbed to the filter paper is measured with a liquid scintillation counter.
The IC50 value was calculated by an XL-fit (IDBS).
The Ki value is calculated by the following formula. S is an ATP concentration contained in the reaction solution while Km is a Michaelis-Menten constant. Ki=IC50/(1+S/Km)
Usually Ki stands for a dissociation constant, usually derived from enzyme kinetics or from competition with a known ligand. The compound `CC(C)(N)c1ccc(-c2ccc3[nH]ncc3c2CO)cc1` [Compound 5-35, 5-[4-(1-Amino-1-methylethyl)phenyl]-4-hydroxymethyl-1H-indazole dihydrochloride] came in with a Ki of 0.139 µM.
For `CC(C)(N)c1ccc(-c2ccc3[nH]ncc3c2C#N)cc1` [Compound 5-36, 5-[4-(1-Amino-1-methylethyl)phenyl]-4-cyano-1H-indazole monohydrochloride], the Ki worked out at 0.035 µM.
In turn, `CC(C)(N)c1ccc(-c2ccc3[nH]ncc3c2-n2cccc2)cc1` [Compound 5-39, 5-[4-(1-Amino-1-methylethyl)phenyl]-4-(pyrrol-1-yl)-1H-indazole dihydrochloride] showed a Ki of 0.012 µM.
Compound `CC(C)Oc1c(-c2ccc(C(C)(C)N)cc2)ccc2[nH]ncc12` [Compound 5-40, 5-[4-(1-Amino-1-methylethyl)phenyl]-4-isopropoxy-1H-indazole dihydrochloride] displayed a Ki of 0.033 µM.
`CC(C)(N)c1ccc(-c2ccc3[nH]ncc3c2N2CCCCC2)cc1` [Compound 5-41, 5-[4-(1-Amino-1-methylethyl)phenyl]-4-(piperidin-1-yl)-1H-indazole trihydrochloride] had a Ki of 0.014 µM.
To `CC(C)(N)c1ccc(-c2ccc3[nH]ncc3c2N2CCCC2)cc1` [Compound 5-42, 5-[4-(1-Amino-1-methylethyl)phenyl]-4-(pyrrolidin-1-yl)-1H-indazole trihydrochloride] belongs 0.014 µM; to `CC(C)(N)c1ccc(-c2ccc3[nH]ncc3c2N2CCOCC2)cc1` [Compound 5-43, 5-[4-(1-Amino-1-methylethyl)phenyl]-4-(morpholin-4-yl)-1H-indazole trihydrochloride], 0.211 µM.
For `COc1c(-c2ccc(C(C)(C)N)cc2)ccc2[nH]ncc12` [Compound 5-44, 5-[4-(1-Amino-1-methylethyl)phenyl]-4-methoxy-1H-indazole dihydrochloride] the value was 0.013 µM; for `COc1c(-c2ccc(C(C)(C)N)cn2)ccc2[nH]ncc12` [Compound 5-45, 5-[5-(1-Amino-1-methylethyl)pyridin-2-yl]-4-methoxy-1H-indazole trihydrochloride], 0.027 µM.
With `COc1c(-c2ccc(C3(N)CCCC3)cn2)ccc2[nH]ncc12` [Compound 5-46, 5-[5-(1-Aminocyclopentyl)pyridin-2-yl]-4-methoxy-1H-indazole trihydrochloride], affinity was put at a Ki of 0.027 µM.
Compound `CCOc1c(-c2ccc(C(C)(C)N)cn2)ccc2[nH]ncc12` [Compound 5-47, 5-[5-(1-Amino-1-methylethyl)pyridin-2-yl]-4-ethoxy-1H-indazole trihydrochloride] had a Ki of 0.045 µM.
The compound `CC(C)(N)c1ccc(-c2ccc3[nH]ncc3c2O)cc1` [Compound 5-48, 5-[4-(1-Amino-1-methylethyl)phenyl]-4-hydroxy-1H-indazole dihydrochloride] displayed a Ki of 0.029 µM.
Compound `CCOc1c(-c2ccc(C(C)(C)N)cc2)ccc2[nH]ncc12` [Compound 5-49, 5-[4-(1-Amino-1-methylethyl)phenyl]-4-ethoxy-1H-indazole dihydrochloride] displayed a Ki of 0.017 µM.
As for `CC(C)Oc1c(-c2ccc(C(C)(C)N)cn2)ccc2[nH]ncc12` [Compound 5-50, 5-[5-(1-Amino-1-methylethyl)pyridin-2-yl]-4-isopropoxy-1H-indazole trihydrochloride], the Ki amounted to 0.084 µM.
In the case of `CCC(N)(CC)c1ccc(-c2ccc3[nH]ncc3c2OC)nc1` [Compound 5-51, 5-[5-(1-Amino-1-ethylpropyl)pyridin-2-yl]-4-methoxy-1H-indazole trihydrochloride], the Ki came to 0.038 µM.
As to `CCCOc1c(-c2ccc(C(C)(C)N)cc2)ccc2[nH]ncc12` [Compound 5-52, 5-[4-(1-Amino-1-methylethyl)phenyl]-4-n-propoxy-1H-indazole dihydrochloride], the affinity corresponds to a Ki of 0.014 µM.
For `CC(C)(N)c1ccc(-c2ccc3[nH]ncc3c2OC(F)F)cc1` [Compound 5-53, 5-[4-(1-Amino-1-methylethyl)phenyl]-4-difluoro-methoxy-1H-indazole dihydrochloride], the Ki turned out to be 0.0036 µM.
